The record followed here is article PMC6138639, “The ZZ-type zinc finger of ZZZ3 modulates the ATAC complex-mediated histone acetylation and gene activation” (Nature Communications, 2018).

Numbering of substitutions follows the chain as printed.

For assay [1], the target named is T1, ZZZ3 ZZ domain (a.a. 800–903) (Homo sapiens, UniProt Q8IYH5).
T1 construct: The samples containing 1.0 µM ZZZ3 ZZ (aa 800–903); GST (N, cleaved yes); made in house; host or cells: E. coli BL21 (DE3) RIL
T1 sequence (Q8IYH5 800-903): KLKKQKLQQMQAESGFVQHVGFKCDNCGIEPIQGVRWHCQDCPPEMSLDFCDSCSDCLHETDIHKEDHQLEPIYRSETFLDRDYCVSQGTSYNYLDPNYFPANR
In words: Microscale thermophoresis (MST) displacement binding assay. The settings on record: displacement of 80 nM fluorescein-labeled H3 (1–12) from 5 μM ZZ by unlabeled peptide; 20 mM Tris–HCl pH 7.0, 150 mM NaCl, 3 mM DTT; H3 triplicates, H3K4ac duplicates. As for the experimental part:
The MST experiments were performed using a Monolith NT.115 instrument (NanoTemper) as described previously. All experiments were performed with the purified ZZ domain (a.a. 800-903) in a buffer containing 20 mM Tris-HCl (pH 7.0), 150 mM NaCl, and 3 mM DTT. The final concentration of the C-terminal fluorescein-labeled histone H3 peptide (1-12, KE BIOCHEM) was kept at 80 nM. Dissociation constants for the interaction between ZZ with unlabeled peptides H3 (1-12) and H3K4ac (1-12) were measured using a displacement assay in which increasing amounts of unlabeled peptides were added into a preformed ZZ:H3-FAM complex prepared by supplementing 5 μM ZZ into each sample. The measurements were performed at 50% LED and 40% MST power with 3-s laser on time and 22 s off time. For all measurements, samples were loaded into premium capillaries and 1400-1700 counts were obtained for the fluorescence intensity. The Kd and IC50 values were determined with the MO.Affinity Analysis software (NanoTemper Technologies GmbH), using two independent MST measurements. […] The Kd value is the dissociation constant of labeled H3 peptide determined in the direct binding experiment described above. […]

The next assay addresses T2, ZZZ3 ZZ domain D824A (Homo sapiens, UniProt Q8IYH5, D824A).
T2 construct: GST (N, cleaved yes); made in house; host or cells: E. coli BL21 (DE3) RIL
T2 sequence (Q8IYH5 818-877 D824A limits assumed): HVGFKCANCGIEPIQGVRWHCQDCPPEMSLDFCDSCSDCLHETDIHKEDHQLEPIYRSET
Description: 1H,15N HSQC NMR titration of ZZZ3 ZZ D824A mutant with histone peptides. The format is binding. The note with it: measured by NMR (1H,15N HSQC titration); 0.1 mM 15N-labeled protein; 298 K. How it is done: (§1) In total, 0.1 mM uniformly ^15N-labeled WT or mutated ZZZ3-ZZ was used in NMR titrations. Binding was characterized by monitoring chemical shift changes in the proteins induced by histone peptides (synthesized by SynPeptide). Dissociation constant (Kd) was determined by applying PCA to the ^1H,^15N HSQC titration spectra in TREND[30]. Each binding isotherm was fitted using the following equation: pbound=∣∣PC1∣∣=L+P+Kd-L+P+Kd^2-4[P][L]/2[P] where [L] is the concentration of the histone peptide, [P] is the concentration of ZZ, pbound is the fraction of protein bound to a ligand, and PC1 is the normalized principal component, obtained by TREND, that indicates the change in the population of the bound state. The errors of the Kd value are the fitting uncertainties from nonlinear least-squares fits in Kaleidagraph.

In assay [2] the target is T3, ZZZ3 ZZ domain (aa 800–903), WT (Homo sapiens, UniProt Q8IYH5).
T3 construct: The samples containing 1.0 µM ZZZ3 ZZ (aa 800–903); GST (N, cleaved yes); made in house; host or cells: E. coli BL21 (DE3) RIL
T3 sequence (Q8IYH5 800-903): T1 sequence (Q8IYH5 800-903)
In words: Tryptophan fluorescence binding of histone peptides to WT ZZZ3 ZZ domain. The settings on record: for Kd: 1.0 µM ZZZ3 ZZ (aa 800–903), 25 °C, 20 mM Tris–HCl pH 7.2, 150 mM NaCl, 1 mM DTT, mean ± SD of three experiments. How it is done:
Spectra were recorded at 25 °C on a Fluoromax-3 spectrofluorometer (HORIBA). The samples containing 1.0 µM ZZZ3 ZZ (aa 800–903) and progressively increasing concentrations of the histone peptide were excited at 295 nm. Experiments were performed in buffer containing 20 mM Tris–HCl (pH 7.2), 150 mM NaCl, and 1 mM DTT, with the exception of experiments shown in Supplementary Fig. 3b, which were performed in 100 mM NaCl buffer. Emission spectra were recorded over a range of wavelengths between 330 and 360 nm with a 0.5-nm step size and a 1-s integration time and averaged over three scans. The Kd values were determined using a nonlinear least-squares analysis and the equation: ΔI=ΔImaxL+P+Kd-L+P+Kd^2-4[P][L]/2[P] where [L] is the concentration of the histone peptide, [P] is the concentration of ZZZ3 ZZ domain, ΔI is the observed change of signal intensity, and ΔImax is the difference in signal intensity of the free and bound states of the ZZ domain. The Kd value was averaged over three separate experiments, with error calculated as the standard deviation between the runs.

For another assay, the target named is T4, ZZZ3 ZZ domain D848A (Homo sapiens, UniProt Q8IYH5, D848A).
T4 construct: GST (N, cleaved yes); made in house; host or cells: E. coli BL21 (DE3) RIL
T4 sequence (Q8IYH5 818-877 D848A limits assumed): T2 sequence (Q8IYH5 818-877 D824A limits assumed) with A7D, D31A
Description: 1H,15N HSQC NMR titration of ZZZ3 ZZ D848A mutant with histone peptides. The format is binding. The note with it: measured by NMR (1H,15N HSQC titration); 0.1 mM 15N-labeled protein; 298 K. As for the experimental part:
as §1

The next assay addresses T5, ZZZ3 ZZ domain (Homo sapiens, UniProt Q8IYH5).
T5 construct: made in house; host or cells: E. coli BL21 (DE3) RIL
T5 sequence (Q8IYH5 818-877 limits assumed): T2 sequence (Q8IYH5 818-877 D824A limits assumed) with A7D
In words: Binding of non-H3-like peptide to ZZZ3 ZZ domain (Supplementary Fig. 2i). The note with it: N-terminal Ala1 added to a non-H3-like peptide.

The next assay addresses T6, ATAC complex (Homo sapiens, UniProt Q8IYH5).
T6 construct: expressed in transfected cells; nuclear extract, M2-agarose, eluted with triple-FLAG peptide
In words: In vitro HAT assay of purified ATAC complex with histone peptides or mononucleosomes. Type of assay: biochemical. The settings on record: 1 μg peptide, 0.1 mM acetyl-CoA, 37 °C, western blot. As for the experimental part: Nuclear extracts were prepared from stable cells using a standard protocol. Briefly, approximately 2 mg of nuclear extract was incubated with 25 µl of M2-agarose beads (Sigma) overnight at 4 °C. The beads were washed four times with high-salt wash buffer (10 mM HEPES, pH 7.9, 25% glycerol, 1.5 mM MgCl2, 300 mM KCl, and 0.1% Triton X-100), followed by two washes with low-salt wash buffer (10 mM HEPES, pH 7.9, 25% glycerol, 1.5 mM MgCl2, 100 mM KCl, and 0.1% Triton X-100). Elution was achieved by two consecutive incubations of the beads with 0.5 mg/ml triple-FLAG peptide (Sigma) in 200 µl of low-salt wash buffer. All buffers contained phenylmethylsulfonyl fluoride and protease inhibitor cocktail (Roche).
Purified complexes were incubated for indicated times at 37 °C with peptides (1 μg) or mononucleosomes (10 μg) and 0.1 mM acetyl-CoA in HAT reaction buffer (50 mM Tris, pH 8.0, 0.1 mM EDTA, 10% glycerol, 1 mM PMSF, and 1 mM DTT) in a total volume of 50 μL. Reactions were quenched by flash-freezing in liquid nitrogen and then analyzed by SDS-PAGE and western blot. Uncropped western blots are shown in Supplementary Figure 11.
For orientation: Immunoblotting shows a protein as a band on a membrane.

Consider `CC(=O)NCCCC[C@H](NC(=O)[C@@H](NC(=O)[C@H](CCCNC(=N)N)NC(=O)[C@H](C)N)[C@@H](C)O)C(=O)N[C@@H](CCC(N)=O)C(=O)N[C@H](C(=O)N[C@@H](C)C(=O)N[C@@H](CCCNC(=N)N)C(=O)N[C@@H](CCCCN)C(=O)N[C@@H](CO)C(=O)N[C@H](C(=O)NCC(=O)O)[C@@H](C)O)[C@@H](C)O` [H3K4ac], for which the values for the Kd in assay [1] and in assay [2] were 5.5 µM and 8.2 µM, respectively. In addition, at ZZZ3 ZZ domain D824A, the “Kd, ZZZ3 ZZ domain D824A” value is given as “No binding”. In addition, the “Fold enhancement of ZZ association over the unmodified H3 peptide” value in assay [2] (Kd 8.2 μM versus 29 μM) is listed as ~ 3 fold.

On to `C[C@H](N)C(=O)N[C@@H](CCCNC(=N)N)C(=O)N[C@H](C(=O)N[C@@H](CCCC[N+](C)(C)C)C(=O)N[C@@H](CCC(N)=O)C(=O)N[C@H](C(=O)N[C@@H](C)C(=O)N[C@@H](CCCNC(=N)N)C(=O)N[C@@H](CCCCN)C(=O)N[C@@H](CO)C(=O)N[C@H](C(=O)NCC(=O)O)[C@@H](C)O)[C@@H](C)O)[C@@H](C)O` [H3K4me3], for which the dissociation constant (Kd) (usually a measure of binding affinity in units of concentration) in assay [2] (SD) is 22 ± 6 µM.

On to `C[C@H](N)C(=O)N[C@@H](CCCNC(=N)N)C(=O)N[C@H](C(=O)N[C@@H](CCCCN)C(=O)N[C@@H](CCC(N)=O)C(=O)N[C@H](C(=O)N[C@@H](C)C(=O)N[C@@H](CCCNC(=N)N)C(=O)N[C@@H](CCCCN)C(=O)N[C@@H](CO)C(=O)N[C@H](C(=O)NCC(=O)O)[C@@H](C)O)[C@@H](C)O)[C@@H](C)O` [H3], for which the dissociation constant Kd in assay [1] was 18 µM; in assay [2], 29 µM. For the same molecule, on ZZZ3 ZZ domain D848A, the “Kd, ZZZ3 ZZ domain D848A” value is “No binding”. The “Kd, ZZZ3 ZZ domain D824A” value at ZZZ3 ZZ domain D824A is “No binding”.

“AGSGSG [non-H3-like peptide with an added N-terminal Ala1]”: the “Binding to the ZZZ3 ZZ domain” value on ZZZ3 ZZ domain was “insufficient to bind”.

As for “H3 (3–33): biotinylated histone H3 peptide lacking the first two amino acids, HAT substrate”, the “HAT activity of the ATAC complex on the peptide substrate” value with ATAC complex is “abolishes the HAT activity”.

With “Lys4-acetylated H3 peptide: Lys4-acetylated H3 (1-22) peptide used as HAT substrate”, in the assay with ATAC complex, the “HAT activity of the ATAC complex on the peptide substrate” value is reported as “better substrate”.
